According to patent US20250388582A1, “NOVEL BICYCLIC HETEROARYL COMPOUND AND USE THEREOF” (ILDONG PHARMACEUTICAL CO., LTD., priority 2022, published 2025):

Biological target: T1, human GST-PIKFYVE (Homo sapiens, UniProt Q9Y2I7)
T1 construct: GST; purchased Carna biosciences 11-118
Experiment: ADP-Glo kinase assay, enzyme inhibition activity against human PIKFYVE (Carna biosciences)
Assay type: biochemical
Details: inhibitory activity at final compound concentration 10 nM; 1 hour at room temperature
Procedure: The enzyme inhibition activity values for the compounds according to Examples against human PIKFYVE were calculated using the ADP-Glo™ kinase assay service of Carna biosciences, Inc. The enzyme activity evaluation method provided by Carna biosciences Inc., is shown below.
Enzyme inhibition activity was evaluated by reacting the compounds according to Examples with human GST-PIKFYVE (11-118, Carna biosciences), which was purified using glutathione Sepharose chromatography. The reaction buffer used was composed of 50 mmol/L MOPS, 1 mmol/L DTT, and pH 7.2, and all reactions of the test distilled water were performed in the buffer.
Compounds were prepared as solutions in 100% DMSO as 100× stocks and adjusted to have a final sample concentration of 10 nM.
The substrate-enzyme reaction for PIKFYVE was performed by mixing 5 μL human GST-PIKFYVE, 5 μL compounds according to Examples, 5 μL enzyme substrate, and 5 μL purified ATP and reacting for 1 hour at room temperature. After the substrate-enzyme reaction, 20 μL ADP-Glo™ Reagent was added and reacted at room temperature for 40 minutes, then 40 μL Kinase Detection Reagent was added and reacted at room temperature for 40 minutes.
After completion of the reaction, the degree of enzyme activity inhibition was measured by luminescence. The fluorescence of the enzyme activity in the solvent control group […] was set to 100%, and the fluorescence of the enzyme activity in the solvent control group without compound treatment was set to 0%. The inhibitory activity of each compound according to Examples was calculated based on these values.

T1 sequence (Q9Y2I7 whole entry): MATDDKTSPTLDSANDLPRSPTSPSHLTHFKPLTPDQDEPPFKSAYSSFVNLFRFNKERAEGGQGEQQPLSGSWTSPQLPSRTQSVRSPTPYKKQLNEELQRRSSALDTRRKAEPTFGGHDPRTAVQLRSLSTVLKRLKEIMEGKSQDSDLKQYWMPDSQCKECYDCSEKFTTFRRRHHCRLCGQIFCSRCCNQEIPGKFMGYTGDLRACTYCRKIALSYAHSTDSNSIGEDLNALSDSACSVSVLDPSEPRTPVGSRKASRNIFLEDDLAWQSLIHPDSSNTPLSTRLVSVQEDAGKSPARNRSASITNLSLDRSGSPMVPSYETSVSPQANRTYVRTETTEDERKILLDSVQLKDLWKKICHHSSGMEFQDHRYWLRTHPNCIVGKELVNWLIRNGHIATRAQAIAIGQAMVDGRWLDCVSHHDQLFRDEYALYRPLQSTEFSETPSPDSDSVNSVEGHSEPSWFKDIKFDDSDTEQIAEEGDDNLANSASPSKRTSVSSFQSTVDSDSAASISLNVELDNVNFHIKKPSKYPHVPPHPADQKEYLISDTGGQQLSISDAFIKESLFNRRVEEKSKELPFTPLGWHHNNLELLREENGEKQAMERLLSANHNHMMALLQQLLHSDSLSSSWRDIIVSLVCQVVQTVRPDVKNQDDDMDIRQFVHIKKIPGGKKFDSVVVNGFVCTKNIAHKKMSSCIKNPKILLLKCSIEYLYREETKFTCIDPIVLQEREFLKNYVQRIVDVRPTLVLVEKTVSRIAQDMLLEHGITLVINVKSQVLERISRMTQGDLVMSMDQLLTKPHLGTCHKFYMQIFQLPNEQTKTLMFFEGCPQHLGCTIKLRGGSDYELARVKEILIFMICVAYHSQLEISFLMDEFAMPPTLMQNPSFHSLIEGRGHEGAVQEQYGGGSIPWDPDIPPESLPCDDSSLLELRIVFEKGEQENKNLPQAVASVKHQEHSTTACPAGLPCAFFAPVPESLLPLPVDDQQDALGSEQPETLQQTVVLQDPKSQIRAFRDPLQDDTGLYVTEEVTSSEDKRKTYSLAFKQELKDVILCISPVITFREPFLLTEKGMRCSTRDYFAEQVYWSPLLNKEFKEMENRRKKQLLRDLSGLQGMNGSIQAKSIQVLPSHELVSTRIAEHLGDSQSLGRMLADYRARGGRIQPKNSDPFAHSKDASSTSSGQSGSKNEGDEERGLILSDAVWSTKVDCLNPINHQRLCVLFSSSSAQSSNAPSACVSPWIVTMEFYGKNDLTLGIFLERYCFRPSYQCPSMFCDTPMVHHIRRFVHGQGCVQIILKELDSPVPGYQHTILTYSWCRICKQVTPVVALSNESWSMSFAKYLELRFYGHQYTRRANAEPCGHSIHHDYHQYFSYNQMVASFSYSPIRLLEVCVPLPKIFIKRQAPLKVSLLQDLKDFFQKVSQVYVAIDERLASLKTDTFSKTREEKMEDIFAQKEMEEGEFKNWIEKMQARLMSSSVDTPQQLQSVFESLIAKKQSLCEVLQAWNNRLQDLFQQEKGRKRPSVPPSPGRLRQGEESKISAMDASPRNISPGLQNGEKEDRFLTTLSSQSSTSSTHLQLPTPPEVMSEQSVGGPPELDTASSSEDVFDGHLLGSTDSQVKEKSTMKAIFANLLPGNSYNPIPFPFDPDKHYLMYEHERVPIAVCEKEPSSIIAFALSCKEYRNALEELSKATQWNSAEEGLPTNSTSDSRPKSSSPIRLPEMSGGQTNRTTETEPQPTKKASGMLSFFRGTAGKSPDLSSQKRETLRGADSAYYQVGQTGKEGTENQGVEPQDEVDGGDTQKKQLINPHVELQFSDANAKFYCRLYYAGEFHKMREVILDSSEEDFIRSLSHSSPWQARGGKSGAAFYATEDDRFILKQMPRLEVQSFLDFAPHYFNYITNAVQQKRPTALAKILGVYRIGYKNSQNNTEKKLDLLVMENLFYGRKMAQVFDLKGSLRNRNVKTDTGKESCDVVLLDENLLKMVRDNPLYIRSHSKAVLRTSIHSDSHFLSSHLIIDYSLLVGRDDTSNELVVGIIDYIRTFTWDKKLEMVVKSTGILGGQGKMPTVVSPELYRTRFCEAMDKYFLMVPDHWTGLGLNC

Row | SMILES | ADP-Glo kinase assay (%, 10 nM) [%]
1 | Cc1cccc(/C=N/n2c(C)nc3c(Nc4ccccc4)nc(N4CCOCC4)nc32)c1 [Example 206, (E)-8-methyl-9-((3-methylbenzylidene)amino)-2-morpholino-N-phenyl-9H-purin-6-amine] | 53.87
2 | Cc1cccc(CNn2cnc3c(Nc4ccncc4)nc(N4CCOCC4)nc32)c1 [Example 203, N^9-(3-methylbenzyl)-2-morpholino-N^6-(pyridin-4-yl)-9H-purin-6,9-diamine] | 53.14
3 | COc1ccc(Nc2nc(N3CCOCC3)nc3c2ncn3/N=C/c2cccc(C)c2)cc1 [Example 178, (E)-N-(4-methoxyphenyl)-9-((3-methylbenzylidene)amino)-2-morpholino-9H-purin-6-amine] | 55.44
4 | Cc1cccc(/C=N/Nc2nc(N3CCOCC3)nc3c2nc(C)n3CC(=O)c2ccncc2)c1 [Example 159, (E)-2-(8-methyl-6-(2-(3-methylbenzylidene)hydrazinyl)-2-morpholino-9H-purin-9-yl)-1-(pyridin-4-yl)ethan-1-one] | 65.33
5 | Cc1cccc(/C=N/Nc2nc(N3CCOCC3)nc3c2ncn3CC(=O)c2cccc(OC(F)(F)F)c2)c1 [Example 50, (E)-2-(6-(2-(3-methylbenzylidene)hydrazinyl)-2-morpholino-9H-purin-9-yl)-1-(3-(trifluoromethoxy)phenyl)ethan-1-one] | 54.37
6 | COC(=O)N1CC(n2cnc3c(N/N=C/c4cccc(C)c4)nc(N4CCOCC4)nc32)C1 [Example 83, methyl (E)-3-(6-(2-(3-methylbenzylidene)hydrazinyl)-2-morpholino-9H-purin-9-yl)azetidine-1-carboxylate] | 63.61
7 | Cc1cccc(/C=N/Nc2nc(N3CCOCC3)nc3c2ncn3C2CCN(C(=O)c3ccccn3)CC2)c1 [Example 94, (E)-(4-(6-(2-(3-methylbenzylidene)hydrazinyl)-2-morpholino-9H-purin-9-yl)piperidin-1-yl)(pyridin-2-yl)methanone] | 58.50
8 | Cc1cccc(-c2ccn(-c3nc(N4CCOCC4)nc4c3ncn4-c3cccc(Cl)c3)n2)c1 [Example 135, 4-(9-(3-chlorophenyl)-6-(3-(m-tolyl)-1H-pyrazol-1-yl)-9H-purin-2-yl)morpholine] | 51.18
9 | Cc1cccc(/C=N/Nc2nc(N3CCOCC3)nc3c2ncn3CC(=O)c2ccc(N3CCOCC3)cc2N2CCOCC2)c1 [Example 51, (E)-1-(2,4-dimorpholinophenyl)-2-(6-(2-(3-methylbenzylidene)hydrazinyl)-2-morpholino-9H-purin-9-yl)ethan-1-one] | 66.19

The remaining lines, values ahead:

Row | ADP-Glo kinase assay (%, 10 nM) [%] | SMILES
10 | 71.38 | Cc1cccc(/C=N/n2c(C)nc3c(OCCc4ccccn4)nc(N4CCOCC4)nc32)c1 [Example 208, (E)-N-8-methyl-2-morpholino-(6-(2-pyridin-2-yl)ethoxy)-9H-purin-9-yl-1-(m-tolyl)methanimine]
11 | 63.03 | Cc1cccc(/C=N/n2cnc3c(Nc4ccccc4)nc(N4CCOCC4)nc32)c1 [Example 180, (E)-9-((3-methylbenzylidene)amino)-2-morpholino-N-phenyl-9H-purin-6-amine]
12 | 64.35 | Cc1cccc(/C=N/n2cnc3c(Nc4ccnc(Cl)c4)nc(N4CCOCC4)nc32)c1 [Example 193, (E)-N-(2-chloropyridin-4-yl)-9-((3-methylbenzylidene)amino)-2-morpholino-9H-purin-6-amine]
13 | 59.84 | COc1ccc(-n2cnc3c(-n4ccc(-c5cccc(C)c5)n4)nc(N4CCOCC4)nc32)cc1 [Example 134, 4-(9-(4-methoxyphenyl)-6-(3-(m-tolyl)-1H-pyrazol-1-yl)-9H-purin-2-yl)morpholine]
14 | 51.47 | Cc1cccc(/C=N/Nc2nc(N3CCOCC3)nc3c(-c4ccccc4)cn(C)c23)c1 [Example 9, (E)-4-(5-methyl-4-(2-(3-methylbenzylidene)hydrazinyl)-7-phenyl-5H-pyrrolo[3,2-d]pyrimidin-2-yl)morpholine]
